The text below walks through data of publication PMC7332481, “Ecotoxicity screening evaluation of selected pharmaceuticals and their transformation products towards various organisms” (Environmental Science and Pollution Research International, 2020).

Molecules are shown by their SMILES. Converted amounts (≈) assume the structure as drawn. Read-outs that look alike come from different tables or passages of the source.

In one data set the test system is Lemna minor. Briefly: L. minor growth inhibition test. The note with it: for EC50 L. minor (with confidence interval 2.5–97.5%): growth rate inhibition by frond area, 7 days; for toxicity to L. minor: highest tested concentration (100 mg L^−1). The method, then: (§1) All tests were carried out in accordance with the OECD or ISO guidelines. In general the experimental part was divided into three main steps: (i) determination of the toxicity of the native forms of pharmaceuticals (their racemic mixtures), (ii) toxicity evaluation of the selected TPs of these pharmaceuticals, and (iii) preliminary toxicity assessment of the enantiomers of selected pharmaceuticals. For each assay, range-finding tests were conducted, in order to determine the range of concentrations for the definitive tests. The main tests were repeated three times in at least two parallel replicates, with a minimum of five concentrations for native forms of the selected pharmaceuticals (including their enantiomers). The exact number of replicates and concentrations tested was included in the description of each test. […] However, TPs were tested in a different manner; first, the tests were carried out at the limit concentration of 100 mg L^−1. […] Such approach was applied in order to observe the relative toxicity of the selected TP and its native form.
(§2) Dose-response curves were fitted using a linear logistic or logistic model (the model giving the best fit was chosen) (https://cran.r-project.org/web/packages/drfit/drfit.pdf). The mathematic formulas applied for this purpose are presented and described in the Supplementary Material. The EC50 values were given since log EC50 is a model parameter in the logistic as well as in linear logistic model.
One week before the assay, the inoculum cultures were prepared; eight healthy plants were placed into a new portion of the medium. Two days before the test, the plants were transferred to a fresh medium, in order to supplement nutrients and to eliminate plant metabolites. The experiments were performed in six-well plates under the conditions described above. The pH value of the Steinberg medium and all solutions was 5.5 (± 0.5). Every test included six different concentrations of compound and six controls in three replicates. The test started with one plant consisting of three fronds and the measured endpoint was the inhibition of growth rate determined by comparing the frond area (mm^2) for the treated plants and untreated controls.

The subject of another data set is Raphidocelis subcapitata. Briefly: R. subcapitata reproduction (growth) inhibition test. In kind it is cell-based. On the procedure: as §1, §2
Test organisms were provided from Algal Culture Collection (Universität Göttingen, Germany). […] The light-dark cycle was different from the OECD guidelines, and it was introduced to imitate natural growth conditions. In order to ensure that the algae are in the exponential growth phase when used to inoculate the test solutions, the stock culture was diluted three times a week. The test was carried out in 25 mL suspension cell culture flasks (Nunc) (working volume 10 mL). All operations were performed under sterile conditions. The initial cell concentration was 5 × 10^4 cells mL^−1. Eight different concentrations of every compound in three replicates and a minimum of six controls were used in each test. […] The test flasks were incubated on a shaker with a speed of approx. 75 rpm at the temperature and light conditions described above. Growth inhibition was calculated using the cell counts of the treated samples in relation to the untreated controls after 72 h of exposure. The cells were counted with the use of CASY TT Cell counter & analyzer.

The test system of a further data set is Daphnia magna. Nature of the data set: D. magna acute immobilization test. The class given is in vivo. The settings on record: for mortality at 100 µg/mL: concentration 100 mg L^−1; for mortality at 50 µg/mL: concentration 50 mg L^−1. On the procedure: as §1, §2
Five pre-fed test organisms were incubated with the studied compounds diluted in 10 mL of test media in glass test vessels at 20 °C (± 1 °C) in darkness for 48 h. Each test consisted of a control and five different concentrations of the studied compound in four parallel replicates. In order to achieve a full dose-response relationship, the concentration series covered the range of 0–100% immobilization. The number of immobilized or dead organisms was checked after 24 and 48 h. The negative effect of exposure to the tested compounds was expressed by the number of immobilized organisms compared to the controls.

The subject of a further data set is Vibrio fischeri. Briefly: microbe, parasite or virus in culture. The class given is cell-based. The note with it: for EC50 V. fischeri (with confidence interval 2.5–97.5%): luminescence inhibition, 30 min, 15 °C; for inhibition at 10 µg/mL: concentration 10 mg L^−1. The method, then:
(§3) Stock solutions and dilutions were prepared in 2% NaCl in 0.02 M phosphate buffer, pH 7. The freeze-dried bacteria were rehydrated prior to testing in a reactivation solution. Culture suspensions and diluted samples were pre-incubated at 15 °C for 15 min. After the initial luminescence was measured, 0.5 mL of the culture suspension was mixed with the same volume of a diluted sample. The final bioluminescence was measured after 30 min. Incubation was kept at 15 °C (LUMIStox 300 meter, Dr. Lange GmbH, Berlin, Germany). The relative toxicity of the samples was expressed as a percentage of luminescence inhibition compared to the controls.
as §3, with “m,” for “meter,”

Setting [1] is: Lemna minor, read-out: Growth inhibition of L. minor.
Setting [2] is: Raphidocelis subcapitata, concentration 100 mg L^−1, read-out: Growth inhibition of R. subcapitata.
[3] abbreviates: growth inhibition by cell counts, 72 h.
The mark [4] stands for this setting: Daphnia magna, read-out: Immobilization.
Where [5] appears, read: Aliivibrio fischeri, read-out: Luminescence inhibition.
The mark [6] stands for this setting: Raphidocelis subcapitata, read-out: Growth inhibition of R. subcapitata.
[7] abbreviates: Aliivibrio fischeri, concentration 100 mg L^−1, read-out: Luminescence inhibition.

Consider `NC(=O)N1c2ccccc2CC(O)c2ccccc21` (stereo not drawn) [10-OH-CRB, 10,11-Dihydro-10-hydroxycarbamazepine], for which, in the data set with Lemna minor (setting [1]), the inhibition – broadly, the share of the control response that was lost under treatment – at 50 µg/mL is 11%. Further, in the data set with Raphidocelis subcapitata (setting [2]), the inhibition at 100 µg/mL was determined as 15%.

With `COc1ccc2cc([C@@H](C)C(=O)O)ccc2c1` (single isomer, unassigned) [NAP Isomer R, R-naproxen], in the data set on Daphnia magna (immobilization, 48 h), the “EC50 D. magna (with confidence interval 2.5–97.5%)” value was 97.35 (91.90–104.95) mg L^−1. In the data set with Vibrio fischeri, the “EC50 V. fischeri (with confidence interval 2.5–97.5%)” value is given as 7.53 (7.11–7.99) mg L^−1. For the same compound, the “EC50 L. minor (with confidence interval 2.5–97.5%)” value in the data set with Lemna minor is on record as 22.37 (20.76–24.04) mg L^−1. The “EC50 R. subcapitata (with confidence interval 2.5–97.5%)” value in the data set on Raphidocelis subcapitata (setting [3]) is 21.08 (19.64–22.59) mg L^−1.

As to `CC(C)Cc1ccc([C@H](C)C(=O)O)cc1` [IBU Isomer S, S-ibuprofen], the EC50 (usually the midpoint of the concentration-response curve) came out at 63.1 µg/mL (≈ 306 µM) with Daphnia magna (Daphnia magna, immobilization, 48 h, read-out: EC50 D. magna (with confidence interval 2.5–97.5%)); 26.3 µg/mL (≈ 128 µM) in the data set with Lemna minor (Lemna minor, 168 h, read-out: EC50 L. minor (with confidence interval 2.5–97.5%), growth rate inhibition by frond area, 7 days); 26.6 µg/mL (≈ 129 µM) with Raphidocelis subcapitata (Raphidocelis subcapitata, 72 h, growth inhibition by cell counts, 72 h, read-out: EC50 R. subcapitata (with confidence interval 2.5–97.5%)).

As for `CC(=O)Nc1ccc(S(=O)(=O)Nc2cc(C)on2)cc1` [N4-SMZ, N^4-Acetylsulfamethoxazole], the mortality at 40 µg/mL with Daphnia magna (setting [4]) stood at 0%. Further, the “toxic effect / risk to V. fischeri” value with Vibrio fischeri was “negligible”. The inhibition at 50 µg/mL in the data set with Vibrio fischeri (setting [5]) turned out to be 8%. Also, in the data set on Lemna minor (setting [1]), the inhibition at 3 µg/mL was 17%. For the same compound, in the data set on Raphidocelis subcapitata (setting [6]), the inhibition at 5 µg/mL was 27%.

As for `CC(C(=O)O)c1ccc2cc(O)ccc2c1` (stereo not drawn) [O-DES-NAP, O-Desmethylnaproxen], the mortality at 70 µg/mL in the data set with Daphnia magna (Daphnia magna, concentration 70 mg L^−1, read-out: Immobilization) turned out to be 0%. Also, the inhibition at 25 µg/mL in the data set with Vibrio fischeri (Aliivibrio fischeri, concentration 25 mg L^−1, read-out: Luminescence inhibition) worked out at 20%.

Take `CN(C)CC1CCCCC1(O)c1cccc(O)c1` (stereo not drawn) [O-DES-TRA, O-Desmethyltramadol]: the mortality at 70 µg/mL in the data set with Daphnia magna (setting [4]) turned out to be 8%. The inhibition at 100 µg/mL came to 0% with Vibrio fischeri (setting [5]), 0% with Lemna minor (setting [1]) and 35% in the data set with Raphidocelis subcapitata (setting [6]). For the same compound, the “toxicity to L. minor” value in the data set on Lemna minor is recorded as “non-toxic”.

In turn, `CC(C)NCC(O)COc1ccc(CC(=O)O)cc1` (stereo not drawn) [MET-ACID, Metoprolol acid] gave a mortality at 100 µg/mL in the data set on Daphnia magna (Daphnia magna) of 0%. In addition, the values for the inhibition at 100 µg/mL with Vibrio fischeri (setting [7]), in the data set on Lemna minor (setting [1]) and in the data set on Raphidocelis subcapitata (setting [2]) were 0%, 5% and 0%, respectively. Further, the “toxicity to L. minor” value in the data set with Lemna minor is listed as “non-toxic”.

As for `CC(C(=O)O)c1ccc(CC(C)(C)O)cc1` (stereo not drawn) [2-OH-IBU, 2-Hydroxyibuprofen], in the data set on Daphnia magna (Daphnia magna), the mortality at 50 µg/mL worked out at 0%. The inhibition at 10 µg/mL in the data set with Vibrio fischeri (setting [5]) was 4%. Also, the inhibition at 15 µg/mL with Lemna minor (setting [1]) amounted to 11%. Moreover, the inhibition at 100 µg/mL in the data set on Raphidocelis subcapitata (setting [2]) is 16%.

With `CC(C)Cc1ccc([C@@H](C)C(=O)O)cc1` (single isomer, unassigned) [IBU Isomer R, R-ibuprofen], the “EC50 D. magna (with confidence interval 2.5–97.5%)” value with Daphnia magna (immobilization, 48 h) is listed as 65.83 (59.54–72.54) mg L^−1. Further, in the data set on Lemna minor, the “EC50 L. minor (with confidence interval 2.5–97.5%)” value is 12.36 (10.80–14.07) mg L^−1. The “EC50 R. subcapitata (with confidence interval 2.5–97.5%)” value with Raphidocelis subcapitata (setting [3]) was 11.65 (10.21–13.26) mg L^−1.

`COc1ccc2cc([C@H](C)C(=O)O)ccc2c1` (single isomer, unassigned) [NAP Isomer S, S-naproxen]: in the data set with Daphnia magna (immobilization, 48 h), the “EC50 D. magna (with confidence interval 2.5–97.5%)” value is reported as 68.76 (54.64–90.98) mg L^−1. In addition, the “EC50 V. fischeri (with confidence interval 2.5–97.5%)” value with Vibrio fischeri is listed as 20.60 (19.50–21.75) mg L^−1. Besides, the “EC50 L. minor (with confidence interval 2.5–97.5%)” value with Lemna minor is on record as 29.14 (27.19–31.40) mg L^−1. Moreover, in the data set with Raphidocelis subcapitata (setting [3]), the “EC50 R. subcapitata (with confidence interval 2.5–97.5%)” value is reported as 27.80 (25.67–30.05) mg L^−1.

In the data set with Daphnia magna (Daphnia magna), `CC(Cc1ccc(C(C)C(=O)O)cc1)C(=O)O` (stereo not drawn) [CBX-IBU, Carboxyibuprofen] gave a mortality at 50 µg/mL of 8%. Moreover, in the data set on Vibrio fischeri (setting [5]), the inhibition at 10 µg/mL worked out at 2%. Further, the inhibition at 15 µg/mL in the data set on Lemna minor (setting [1]) is 6%. Besides, in the data set on Raphidocelis subcapitata (setting [2]), the inhibition at 100 µg/mL was found to be 14%.

On to `NC(=O)N1c2ccccc2C2OC2c2ccccc21` (stereo not drawn) [CRB-Ep, Carbamazepine 10,11-epoxide], for which the mortality at 100 µg/mL with Daphnia magna (Daphnia magna) was determined as 0%. Moreover, the values for the inhibition at 100 µg/mL in the data set on Vibrio fischeri (setting [7]) and with Raphidocelis subcapitata (setting [2]) were 30% and 37%, respectively. Moreover, in the data set with Lemna minor (setting [1]), the inhibition at 50 µg/mL came to 32%.
